Test results taken from the supplement of paper PMC10307832.

How the values were obtained:
Assay in all cases: relative viability (nuclei count vs DMSO), 5 days (fraction); higher = more cells survive
201T = tested on: 201T
Procedure, shortened: (§1)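 Nuclei were stained with Hoechst during a one-step fixation (final 0.05% Triton X-100, 1% formaldehyde, 1 ug/ml Hoechst) carried out 5 days after dosing, then counted on 4× images. The cells, lung cancer lines in 1536-well plates, had been dosed by pin tool the day after seeding with one drug alone or a fixed anchor-drug dose plus five library-drug doses (not always all listed) in √10 steps. Relative viability is the nuclei count in treated wells divided by that in vehicle wells, and each value is the median of duplicate plates.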

BEN = tested on: BEN
Procedure, shortened: as §1

CAL-12T = tested on: CAL-12T
Procedure, shortened: as §1

HCC-78 = tested on: HCC-78
Procedure, shortened: as §1

HOP-62 = tested on: HOP-62
Procedure, shortened: as §1

LCLC-97TM1 = tested on: LCLC-97TM1
Procedure, shortened: as §1

LOU-NH91 = tested on: LOU-NH91
Procedure, shortened: as §1

NCI-H1355 = tested on: NCI-H1355
Procedure, shortened: as §1

NCI-H1395 = tested on: NCI-H1395
Procedure, shortened: as §1

NCI-H1563 = tested on: NCI-H1563
Procedure, shortened: as §1

NCI-H1651 = tested on: NCI-H1651
Procedure, shortened: as §1

NCI-H1793 = tested on: NCI-H1793
Procedure, shortened: as §1

NCI-H1915 = tested on: NCI-H1915
Procedure, shortened: as §1

NCI-H1944 = tested on: NCI-H1944
Procedure, shortened: as §1

NCI-H2126 = tested on: NCI-H2126
Procedure, shortened: as §1

NCI-H2347 = tested on: NCI-H2347
Procedure, shortened: as §1

NCI-H3122 = tested on: NCI-H3122
Procedure, shortened: as §1

NCI-H322M = tested on: NCI-H322M
Procedure, shortened: as §1

NCI-H441 = tested on: NCI-H441
Procedure, shortened: as §1

NCI-H650 = tested on: NCI-H650
Procedure, shortened: as §1

NCI-H838 = tested on: NCI-H838
Procedure, shortened: as §1

SK-LU-1 = tested on: SK-LU-1
Procedure, shortened: as §1

SW 1573 = tested on: SW 1573
Procedure, shortened: as §1

Structure (SMILES): CCNC(=O)c1noc(-c2cc(C(C)C)c(O)cc2O)c1-c1ccc(CN2CCOCC2)cc1 [Luminespib] + Nc1nc2[nH]cc(CCc3ccc(C(=O)N[C@@H](CCC(=O)O)C(=O)O)cc3)c2c(=O)[nH]1 [Pemetrexed] (partner 0.2 µM)
- relative viability (201T; first compound 0.002 µM): 0.333
- relative viability (201T; first compound 0.006325 µM): 0.311
- relative viability (201T; first compound 0.02 µM): 0.346
- relative viability (201T; first compound 0.06325 µM): 0.359
- relative viability (201T; first compound 0.2 µM): 0.206
- relative viability (BEN; first compound 0.002 µM): 0.805
- relative viability (BEN; first compound 0.006325 µM): 0.584
- relative viability (BEN; first compound 0.02 µM): 0.463
- relative viability (BEN; first compound 0.06325 µM): 0.5
- relative viability (BEN; first compound 0.2 µM): 0.252
- relative viability (CAL-12T; first compound 0.002 µM): 1.23
- relative viability (CAL-12T; first compound 0.006325 µM): 0.988
- relative viability (CAL-12T; first compound 0.02 µM): 0.906
- relative viability (CAL-12T; first compound 0.06325 µM): 0.146
- relative viability (CAL-12T; first compound 0.2 µM): 0.124
- relative viability (HCC-78; first compound 0.002 µM): 0.885
- relative viability (HCC-78; first compound 0.006325 µM): 0.864
- relative viability (HCC-78; first compound 0.02 µM): 0.97
- relative viability (HCC-78; first compound 0.06325 µM): 0.87
- relative viability (HCC-78; first compound 0.2 µM): 0.858
- relative viability (HOP-62; first compound 0.002 µM): 0.314
- relative viability (HOP-62; first compound 0.006325 µM): 0.4
- relative viability (HOP-62; first compound 0.02 µM): 0.34
- relative viability (HOP-62; first compound 0.06325 µM): 0.156
- relative viability (HOP-62; first compound 0.2 µM): 0.125
- relative viability (LCLC-97TM1; first compound 0.002 µM): 0.189
- relative viability (LCLC-97TM1; first compound 0.006325 µM): 0.164
- relative viability (LCLC-97TM1; first compound 0.06325 µM): 0.0959
- relative viability (LCLC-97TM1; first compound 0.2 µM): 0.0922
- relative viability (LOU-NH91; first compound 0.002 µM): 0.426
- relative viability (LOU-NH91; first compound 0.006325 µM): 0.36
- relative viability (LOU-NH91; first compound 0.02 µM): 0.539
- relative viability (LOU-NH91; first compound 0.06325 µM): 0.339
- relative viability (LOU-NH91; first compound 0.2 µM): 0.324
- relative viability (NCI-H1355; first compound 0.002 µM): 1.12
- relative viability (NCI-H1355; first compound 0.006325 µM): 1.02
- relative viability (NCI-H1355; first compound 0.02 µM): 0.627
- relative viability (NCI-H1355; first compound 0.06325 µM): 0.895
- relative viability (NCI-H1355; first compound 0.2 µM): 0.14
- relative viability (NCI-H1395; first compound 0.002 µM): 0.875
- relative viability (NCI-H1395; first compound 0.006325 µM): 0.812
- relative viability (NCI-H1395; first compound 0.02 µM): 0.699
- relative viability (NCI-H1395; first compound 0.06325 µM): 0.299
- relative viability (NCI-H1395; first compound 0.2 µM): 0.353
- relative viability (NCI-H1563; first compound 0.002 µM): 0.808
- relative viability (NCI-H1563; first compound 0.006325 µM): 0.599
- relative viability (NCI-H1563; first compound 0.02 µM): 0.668
- relative viability (NCI-H1563; first compound 0.06325 µM): 0.402
- relative viability (NCI-H1563; first compound 0.2 µM): 0.41
- relative viability (NCI-H1651; first compound 0.002 µM): 0.555
- relative viability (NCI-H1651; first compound 0.006325 µM): 0.536
- relative viability (NCI-H1651; first compound 0.02 µM): 0.474
- relative viability (NCI-H1651; first compound 0.06325 µM): 0.646
- relative viability (NCI-H1651; first compound 0.2 µM): 0.443
- relative viability (NCI-H1793; first compound 0.002 µM): 0.859
- relative viability (NCI-H1793; first compound 0.006325 µM): 0.741
- relative viability (NCI-H1793; first compound 0.02 µM): 0.294
- relative viability (NCI-H1793; first compound 0.06325 µM): 0.122
- relative viability (NCI-H1793; first compound 0.2 µM): 0.119
- relative viability (NCI-H1915; first compound 0.002 µM): 0.479
- relative viability (NCI-H1915; first compound 0.006325 µM): 0.482
- relative viability (NCI-H1915; first compound 0.02 µM): 0.442
- relative viability (NCI-H1915; first compound 0.06325 µM): 0.312
- relative viability (NCI-H1915; first compound 0.2 µM): 0.0621
- relative viability (NCI-H1944; first compound 0.002 µM): 0.636
- relative viability (NCI-H1944; first compound 0.006325 µM): 0.602
- relative viability (NCI-H1944; first compound 0.02 µM): 0.477
- relative viability (NCI-H1944; first compound 0.06325 µM): 0.258
- relative viability (NCI-H1944; first compound 0.2 µM): 0.149
- relative viability (NCI-H2126; first compound 0.002 µM): 0.705
- relative viability (NCI-H2126; first compound 0.006325 µM): 0.626
- relative viability (NCI-H2126; first compound 0.06325 µM): 0.479
- relative viability (NCI-H2126; first compound 0.2 µM): 0.181
- relative viability (NCI-H2347; first compound 0.002 µM): 0.402
- relative viability (NCI-H2347; first compound 0.006325 µM): 0.404
- relative viability (NCI-H2347; first compound 0.02 µM): 0.426
- relative viability (NCI-H2347; first compound 0.06325 µM): 0.42
- relative viability (NCI-H2347; first compound 0.2 µM): 0.317
- relative viability (NCI-H3122; first compound 0.002 µM): 0.203
- relative viability (NCI-H3122; first compound 0.006325 µM): 0.182
- relative viability (NCI-H3122; first compound 0.02 µM): 0.184
- relative viability (NCI-H3122; first compound 0.06325 µM): 0.135
- relative viability (NCI-H3122; first compound 0.2 µM): 0.111
- relative viability (NCI-H322M; first compound 0.002 µM): 0.638
- relative viability (NCI-H322M; first compound 0.006325 µM): 0.507
- relative viability (NCI-H322M; first compound 0.02 µM): 0.596
- relative viability (NCI-H322M; first compound 0.06325 µM): 0.409
- relative viability (NCI-H322M; first compound 0.2 µM): 0.376
- relative viability (NCI-H441; first compound 0.002 µM): 0.263
- relative viability (NCI-H441; first compound 0.006325 µM): 0.309
- relative viability (NCI-H441; first compound 0.02 µM): 0.248
- relative viability (NCI-H441; first compound 0.06325 µM): 0.153
- relative viability (NCI-H441; first compound 0.2 µM): 0.116
- relative viability (NCI-H650; first compound 0.002 µM): 0.925
- relative viability (NCI-H650; first compound 0.006325 µM): 0.983
- relative viability (NCI-H650; first compound 0.02 µM): 0.625
- relative viability (NCI-H650; first compound 0.06325 µM): 0.257
- relative viability (NCI-H650; first compound 0.2 µM): 0.113
- relative viability (NCI-H838; first compound 0.002 µM): 0.265
- relative viability (NCI-H838; first compound 0.006325 µM): 0.256
- relative viability (NCI-H838; first compound 0.02 µM): 0.284
- relative viability (NCI-H838; first compound 0.06325 µM): 0.141
- relative viability (NCI-H838; first compound 0.2 µM): 0.177
- relative viability (SK-LU-1; first compound 0.002 µM): 1.01
- relative viability (SK-LU-1; first compound 0.006325 µM): 0.779
- relative viability (SK-LU-1; first compound 0.02 µM): 0.825
- relative viability (SK-LU-1; first compound 0.06325 µM): 0.244
- relative viability (SK-LU-1; first compound 0.2 µM): 0.206
- relative viability (SW 1573; first compound 0.002 µM): 0.818
- relative viability (SW 1573; first compound 0.006325 µM): 0.898
- relative viability (SW 1573; first compound 0.02 µM): 0.189
- relative viability (SW 1573; first compound 0.06325 µM): 0.0968
- relative viability (SW 1573; first compound 0.2 µM): 0.0903
